Our source for the IC50 and GI50 values is patent US20240382600A1, “BIFUNCTIONAL DEGRADERS COMPRISING A TEAD BINDER” (Novartis AG, priority 2021, published 2024).

In assay [1] the target is Avi-humanTEAD4^217-434 / Cy5 labeled humanYAP^60-100 (Homo sapiens (Human), UniProt Q15561). Nature of the assay: In-vitro biochemical TR-FRET assay (TEAD4/YAP). The class given is binding. The note with it: 1 h at room temperature. As for the experimental part: N-terminus Cy5 labeled humanYAP^60-100 (20 nM) was then added to this preparation. Compounds were dissolved at 10 mM in 100% DMSO and serial dilutions were made in 100% DMSO. The diluted compound solutions were incubated in white 384-well plates (Greiner Bio-One) for 1 h at room temperature with the above described mix. The final DMSO concentration present in the assay was 1%. […] The IC50 values were estimated by fitting the data by nonlinear fit regression (GraphPad Prism).

For assay [2], the system named is YAP-dependent transcription in NCI-H2052 Tet-On shYAP_2371 pLenti6 MCAT_Luc cells. Nature of the assay: YAP reporter gene activity assay (MCAT-Luc), NCI-H2052. The class given is cell-based. The settings on record: 24 hrs. For orientation: Reporter assays use an easily measured gene product as a stand-in for the process of interest.
For assay [3], the system named is YAP-dependent transcription in SF268-MCAT_Luc_dox-i-shYAPLevy (Clone 13) cells. Put plainly: YAP reporter gene activity assay (MCAT-Luc), SF268. The class given is cell-based. The note with it: SF268 MCAT_Luc, 24 hrs.
The subject of assay [4] is MKN-45/Ubc-luc cells (unspecific inhibition of luciferase expression or activity). Put plainly: Reporter gene assay specificity control (Ubc-Luc), MKN-45. The note with it: MKN-45/Ubc-luc specificity control, 24 hrs. The format is cell-based. From the text: (§1) NCI-H2052 mesothelioma cells (RRID: CVCL_1518) bearing Hippo-pathway inactivating mutations upstream of YAP (homozygous deletion of LATS2 and mutation of NF2) were obtained from ATCC (American Type Culture Collection), while SF268 glioma cells (RRID: CVCL_1689) overexpressing YAP due to genomic amplification were obtained from the NCI (National Cancer Institute). MKN-45 gastric adenocarcinoma cells (RRID: CVCL_0434) genomically deleted for YAP were obtained from the JCRB (Japanese Collection of Research Bioresources) Cell Bank.
As a specificity control, MKN-45 cells were stably transduced with a Ubc-Luc reporter construct, in which constitutive expression of firefly luciferase is driven by the promoter of the ubiquitin C housekeeping gene. The resulting cell line, MKN-45/Ubc-luc, was selected and maintained in growth medium (RPMI 1640 (Amimed Cat #1-41F01-I), 2 mM L-Glutamine (Amimed Cat #5-10K50-H), 10% fetal calf serum (Amimed Cat #2-01F30-I Lot K08815P), 1% MEM Non-essential amino acids (Amimed Cat #5-13K00-H), 1× Penicillin/Streptomycin (Amimed Cat #4-01F00-H)) containing 1 μg/ml blasticidin (Gibco Cat #A11139-03).
(§2) Stock solutions of compounds were prepared at a concentration of 10 mM in DMSO and stored at 4° C. Where necessary to afford a full dose-response curve, the stock solutions were pre-diluted in DMSO to 1′000-fold the desired reduced start concentration. On the day after cell seeding, eleven 2-fold serial dilutions of each compound were dispensed directly into the cell assay plates using a HP 300D non-contact Digital Dispenser (TECAN). The final concentration of DMSO was normalized to 0.1% in all wells.
The ability of compounds to inhibit YAP-dependent transcription was assessed in NCI-H2052 Tet-On shYAP_2371 pLenti6 MCAT_Luc and SF268-MCAT_Luc, dox-i-shYAPLevy (Clone 13) cells, while specificity (lack of unspecific inhibition of luciferase expression or activity) was assessed in MKN-45/Ubc-luc cells. The individual cell lines were seeded at 2′500 cells/20 μl/well into white-wall, clear-bottom 384-well plates (Greiner, Cat #781098) and incubated over night at 37° C. prior to addition of serial compound dilutions as described above. Following incubation for 24 hrs at 37° C., compound-mediated modulation of reporter-gene activity was quantified 5 min after addition 20 μL […] BrightGlo (Promega Cat #E2620), by measuring luminescence intensity on a multi-mode plate-reader (TECAN) with an integration time of 100 ms.
(§3) For data analysis, the assay background value determined in wells containing medium, but no cells, was subtracted from all data points.

For assay [5], the system named is NCI-H2052 Tet-On shYAP_2371 pLenti6 MCAT_Luc cells. Nature of the assay: Proliferation assay (resazurin/AlamarBlue), NCI-H2052. The format is cell-based. The note with it: NCI-H2052, 72 hours.
Source text: as §1, §2
(§4) After incubation for 72 hours at 37° C., compound-mediated modulation of cell viability was quantified as follows. […] To enable differentiation of cytotoxic from cytostatic compound effects, the number of viable cells on the day of compound addition (day 0) was assessed in a separate cell plate and used to assess the extent of cell viability suppression as described in the following section.
as §3
(§5) The extent of growth inhibition and potential cell kill was assessed by comparing the resorufin levels in compound-treated cells with those present at the time of compound addition. To this end, the following conditional concept was programmatically applied in HELIOS to calculate % growth (% G) for each compound-treated well: % G=(T−V0)/V0))*100 when T<V0, and % G=(T−V0)/(V−V0)))*100 when T≥V0, where V0 is the viability level at time of compound addition, while V and T represent vehicle-control and compound-treated viability levels, respectively, at the end of the compound incubation. 100%, 0% and −100% signify absence of growth inhibition, growth stasis, and complete cell kill, respectively. Compound concentrations leading to half-maximal growth inhibition (GI50) and residual cell viability at the highest tested compound concentration (Data(cmax), expressed in percent) were routinely calculated.
In general terms: The colour change of resazurin is a common sign of viable cells or microbes.

Assay [6] concerns SF268-MCAT_Luc_dox-i-shYAPLevy (Clone 13) cells. Nature of the assay: Proliferation assay (resazurin/AlamarBlue), SF268. The settings on record: SF268, 72 hours. The class given is cell-based.
Source text: as §1, §2, §4, §3, §5

The next assay concerns MKN-45/Ubc-luc cells. Put plainly: Proliferation assay (resazurin/AlamarBlue), MKN-45. The format is cell-based. The settings on record: MKN-45, 72 hours.
Source text: as §1
As a specificity control, MKN-45 cells were stably transduced with a Ubc-Luc reporter construct, in which constitutive expression of firefly luciferase is driven by the promoter of the ubiquitin C housekeeping gene.
as §2, §4, §3, §5

Sequence of Avi-humanTEAD4^217-434 / Cy5 labeled humanYAP^60-100 (Q15561 217-434): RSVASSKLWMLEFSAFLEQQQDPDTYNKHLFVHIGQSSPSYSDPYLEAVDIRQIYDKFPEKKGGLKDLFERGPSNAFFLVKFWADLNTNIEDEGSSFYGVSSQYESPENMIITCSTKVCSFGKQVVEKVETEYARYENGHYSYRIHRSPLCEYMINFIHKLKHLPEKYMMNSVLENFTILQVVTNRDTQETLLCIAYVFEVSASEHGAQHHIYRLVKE

What is called IC50 is the concentration needed to halve the response being measured. Higher therefore signals lower potency. A word on the GI50: it is the concentration that inhibits growth by half. Consider `COc1ccc(OCC(=O)N2CCC(CC3CCN(C(=O)[C@H]4CC[C@H](NC[C@]5(c6ccccc6)Oc6cc(F)c(Cl)c(-c7c(C(N)=O)ccc(OC)c7F)c6[C@@H]5C)CC4)CC3)CC2)cc1N1CCC(=O)NC1=O` (atropisomer, axis not shown) [Example 30, 2-((2S,3S,4S)-5-chloro-2-((((1r,4S)-4-(4-((1-(2-(3-(2,4-dioxotetrahydropyrimidin-1(2H)-yl)-4-methoxyphenoxy)acetyl)piperidin-4-yl)methyl)piperidine-1-carbonyl)cyclohexyl)amino)methyl)-6-fluoro-3-methyl-2-phenyl-2,3-dihydrobenzofuran-4-yl)-3-fluoro-4-methoxybenzamide], for which the IC50 in assay [1] was 2.6 nM; in assay [2] (Homo sapiens), 6.9 nM; in assay [3] (Homo sapiens, SF-268), 1.1 nM; in assay [4] (Homo sapiens), above 2000 nM. The concentration for 50% growth inhibition (GI50) was 27 nM in assay [5] (Homo sapiens); 35 nM in assay [6] (Homo sapiens, SF-268); above 200 nM in the assay with MKN-45/Ubc-luc cells (Homo sapiens).

As for `CNC(=O)c1cnc(OCCOCCOCCn2cc(-c3ccc4c(c3)CN(C3CCC(=O)NC3=O)C4=O)nn2)c(F)c1-c1c(Cl)c(F)cc2c1C[C@](c1ccccc1)([C@@H]1CCCN1)O2` (stereo partly drawn) [Example 33, 4-((2S,4S)-5-chloro-6-fluoro-2-phenyl-2-((S)-pyrrolidin-2-yl)-2,3-dihydrobenzofuran-4-yl)-6-(2-(2-(2-(4-(2-(2,6-dioxopiperidin-3-yl)-1-oxoisoindolin-5-yl)-1H-1,2,3-triazol-1-yl)ethoxy)ethoxy)ethoxy)-5-fluoro-N-methylnicotinamide], the IC50 in assay [1] was 94 nM; in assay [2] (Homo sapiens), 3140 nM; in assay [3] (Homo sapiens, SF-268), 1340 nM; in assay [4] (Homo sapiens), above 20000 nM. Further, the GI50 in assay [5] (Homo sapiens) is 4400 nM; in assay [6] (Homo sapiens, SF-268) it was above 20000 nM; in the assay on MKN-45/Ubc-luc cells (Homo sapiens) it was above 20000 nM.

As to `COc1ccc(C(N)=O)c(-c2c(Cl)c(F)cc3c2[C@H](C)[C@@](CN[C@H]2CC[C@H](C(=O)OC)CC2)(c2ccccc2)O3)c1F` [C-I-k, Methyl (1S,4r)-4-((((2S,3S,4S)-4-(6-carbamoyl-2-fluoro-3-methoxyphenyl)-5-chloro-6-fluoro-3-methyl-2-phenyl-2,3-dihydrobenzofuran-2-yl)methyl)amino)cyclohexane-1-carboxylate], the IC50 in assay [1] stood at 1.9 nM; in assay [2], 40 nM; in assay [3], 33 nM; in assay [4] it was 14300 nM. In addition, the GI50 in assay [5] was 27 nM; in assay [6], 390 nM; with MKN-45/Ubc-luc cells, 4110 nM.

Regarding `COc1ccc(C(N)=O)c(-c2c(Cl)c(F)cc3c2[C@H](C)[C@@](CN[C@H]2CC[C@H](C(=O)N4CCC(C5CCN(C(=O)COc6cc(-c7scnc7C)ccc6CNC(=O)[C@@H]6C[C@@H](O)CN6C(=O)[C@@H](NC(=O)C6(F)CC6)C(C)(C)C)CC5)CC4)CC2)(c2ccccc2)O3)c1F` (atropisomer, axis not shown) [Example 43, (2S,4R)-N-(2-(2-(1′-((1S,4r)-4-((((2S,3S,4S)-4-(6-carbamoyl-2-fluoro-3-methoxyphenyl)-5-chloro-6-fluoro-3-methyl-2-phenyl-2,3-dihydrobenzofuran-2-yl)methyl)amino)cyclohexane-1-carbonyl)-[4,4′-bipiperidin]-1-yl)-2-oxoethoxy)-4-(4-methylthiazol-5-yl)benzyl)-1-((S)-2-(1-fluorocyclopropane-1-carboxamido)-3,3-dimethylbutanoyl)-4-hydroxypyrrolidine-2-carboxamide], the IC50 is 8.7 nM in assay [1]; 17 nM in assay [2] (Homo sapiens); 2.3 nM in assay [3] (Homo sapiens, SF-268); above 2000 nM in assay [4] (Homo sapiens). Further, the GI50 was 73 nM in assay [5] (Homo sapiens); 68 nM in assay [6] (Homo sapiens, SF-268); above 200 nM in the assay with MKN-45/Ubc-luc cells (Homo sapiens).

`COc1ccc(C(=O)N2CCC(OC3CN(C(=O)[C@H]4CC[C@H](NC[C@]5(c6ccccc6)Oc6cc(F)c(Cl)c(-c7c(C(N)=O)ccc(OC)c7F)c6[C@@H]5C)CC4)C3)CC2)cc1N1CCC(=O)NC1=O` (atropisomer, axis not shown) [Example 8, 2-((2S,3S,4S)-5-chloro-2-((((1r,4S)-4-(3-((1-(3-(2,4-dioxotetrahydropyrimidin-1(2H)-yl)-4-methoxybenzoyl)piperidin-4-yl)oxy)azetidine-1-carbonyl)cyclohexyl)amino)methyl)-6-fluoro-3-methyl-2-phenyl-2,3-dihydrobenzofuran-4-yl)-3-fluoro-4-methoxybenzamide]: the IC50 is 1.6 nM in assay [1]; 120 nM in assay [2] (Homo sapiens); 3.1 nM in assay [3] (Homo sapiens, SF-268); above 20000 nM in assay [4] (Homo sapiens). The GI50 was 310 nM in assay [5] (Homo sapiens); 120 nM in assay [6] (Homo sapiens, SF-268); above 20000 nM with MKN-45/Ubc-luc cells (Homo sapiens).

With `COc1ccc(C(N)=O)c(-c2c(Cl)c(F)cc3c2[C@H](C)[C@@](CN[C@H]2CC[C@H](C(=O)N4CCC(CC5CCN(C(=O)COc6cc(-c7scnc7C)ccc6CNC(=O)[C@@H]6C[C@@H](O)CN6C(=O)[C@@H](NC(=O)C6(F)CC6)C(C)(C)C)CC5)CC4)CC2)(c2ccccc2)O3)c1F` (atropisomer, axis not shown) [Example 42, (2S,4R)-N-(2-(2-(4-((1-((1S,4r)-4-((((2S,3S,4S)-4-(6-carbamoyl-2-fluoro-3-methoxyphenyl)-5-chloro-6-fluoro-3-methyl-2-phenyl-2,3-dihydrobenzofuran-2-yl)methyl)amino)cyclohexane-1-carbonyl)piperidin-4-yl)methyl)piperidin-1-yl)-2-oxoethoxy)-4-(4-methylthiazol-5-yl)benzyl)-1-((S)-2-(1-fluorocyclopropane-1-carboxamido)-3,3-dimethylbutanoyl)-4-hydroxypyrrolidine-2-carboxamide], the IC50 is 19 nM in assay [1]; 4.2 nM in assay [2] (Homo sapiens); 0.45 nM in assay [3] (Homo sapiens, SF-268); above 2000 nM in assay [4] (Homo sapiens). Also, the GI50 in assay [5] (Homo sapiens) was 31 nM; in assay [6] (Homo sapiens, SF-268) it was 31 nM; in the assay with MKN-45/Ubc-luc cells (Homo sapiens), above 200 nM.
